From patent publication US10646596B2, “Near-infrared dye-bound transferrin, and contrast agent for photoacoustic imaging, including the near-infrared dye-bound transferrin” (CANON KABUSHIKI KAISHA, priority 2015, dated 2020)

What was measured:
[1] = Tumor accumulation property (amount of dye in tumor) in cancer-bearing mouse; type: in vivo; settings: mouse, 24 hours after administration
From the text: (§1) The amount of the dye in a tumor and the amount of the dye in blood with respect to each mouse in the tumor-imaging experiment performed in Example 4 were quantitatively determined to thereby evaluate the tumor accumulation property and the residual rate in blood of each compound.
(§2) The tumor accumulation property was expressed as the rate of dye transfer (% ID/g) to a tumor relative to the amount of the dye to be administered per gram of the tumor. First, the mouse was euthanized by a carbon dioxide gas after 24 hours of administration, and thereafter the tumor was surgically resected. The tumor was transferred to a plastic tube, an aqueous 1% Triton-X100 solution was added at 1.25 times the weight of the tumor, and the tumor was crushed using a plastic pestle. Next, DMSO was added at 20.25 times the weight of the tumor tissue. The fluorescence intensity of the solution of the tumor crushed, treated as described above, was measured in the plastic tube using IVIS (registered trademark) Imaging System 200 Series (XENOGEN) to thereby measure the amount of the dye in the tumor.
(§3) The tumor/blood ratio was calculated by the above measurements. The ratio corresponds to the ratio of the tumor accumulation property to the residual rate in blood, and a higher ratio means a higher tumor-imaging ability.

[2] = system: colon 26 mouse colon cancer cells (subcutaneous tumor); test: as above; type: in vivo; settings: 24 hours after administration; for Tumor/blood ratio: tumor accumulation / residual rate in blood
From the text: as §1, §2, §3

[3] = system: colon 26 mouse colon cancer cells (subcutaneous tumor); test: Evaluation of tumor-imaging contrast by fluorescence imaging in cancer-bearing mouse; type: in vivo; settings: for fluorescent signal from the tumor site in fluorescence image: 24 hours after administration, FIGURE; for Imaging contrast (fluorescence intensity of tumor site / normal site): 24 hours after tail vein administration, 10 nmol dye per mouse (Alexa Fluor 680-TF (2.0): 31 nmol)
From the text: In the fluorescence imaging experiment, a female outbred BALB/c Slc-nu/nu mouse (6-week-old at the time of purchase) (Japan SLC, Inc.) was used. For one week before the mouse was allowed to bear a cancer, normal diet and bed were used to habituate the mouse to an environment where the diet and drinking water were available ad libitum. Before about one week of the imaging experiment, 1×10^6 colon 26 mouse colon cancer cells (RIKEN) were subcutaneously injected into the femur area of the mouse to thereby prepare a cancer-bearing model mouse.
In order to evaluate the tumor-imaging contrast, the fluorescence intensity of a tumor site (measured area: 0.5×0.5 cm) and the fluorescence intensity (selected as a normal site, measured area: 0.5×0.5 cm) of the base of a leg were quantified from the fluorescence imaging data illustrated in FIGURE. The ratio of the intensities, namely, the value obtained by dividing the value of the fluorescence intensity of a tumor site by the value of the fluorescence intensity of a normal site, was expressed by a numeral value as an imaging contrast. […] A larger imaging contrast of the compound of the present invention than the imaging contrast of Alexa Fluor 680-TF (2.0) is considered to be due to the difference in tumor accumulation property, as described later. The number of the dye(s) labeled at which the highest imaging contrast was achieved was 4.8. On the other hand, when the number of the dye(s) labeled exceeded 8, a tendency of the imaging contrast to be reduced was observed.

[4] = in vivo; cited from earlier work
[5] = Residual rate in blood (amount of dye in blood) in cancer-bearing mouse; type: in vivo; settings: 24 hours after administration, tail vein blood
Description: as §1
The residual rate in blood was expressed as the rate of dye transfer (% ID/g) to blood relative to the amount of the dye to be administered per gram of blood (1 mL when the specific gravity was assumed to be 1). A blood sample was taken from the tail vein of the mouse after 24 hours of administration, and the blood sample, 1% Triton (registered trademark) X-100 and DMSO were mixed in the plastic tube in a ratio of 2:9:9. The fluorescence intensity of the blood solution treated as described above was measured in the plastic tube using IVIS (registered trademark) Imaging System 200 Series (manufactured by XENOGEN) to thereby measure the amount of the dye in blood.

Molecule | tissue uptake at 24 h ([1]; tumor, read-out: Rate of tumor accumulation) [%ID/g] | Kp at 24 h ([1]; tumor accumulation / residual rate in blood, read-out: Tumor/blood ratio) | Rate of tumor accumulation [2] | fluorescent signal from the tumor site in fluorescence image [3] | Imaging contrast (fluorescence intensity of tumor site / normal site) [3] | half-life in blood [4] | tissue uptake at 24 h ([5]; mouse, whole blood) [%ID/g] | Tumor/blood ratio [2] | Residual rate in blood [5] [% ID/g]
CC1(C)C(/C=C/C=C/C=C/C=C2/N(CCCCS(=O)(=O)[O-])c3ccc4ccccc4c3C2(C)C)=[N+](CCCCS(=O)(=O)[O-])c2ccc3ccccc3c21.[Na+] [ICG, indocyanine green, reference compound] | 0 | 0.1 | zero | no fluorescent signal was observed | 1.2 | about several minutes | 0.1 |  | 
Alexa Fluor 680-TF (2.0): Transferrin From Human Serum, Alexa Fluor 680 Conjugate, Life Technologies, Product No. T35357, number of dye(s) labeled 2.0 [reference compound] |  |  | 0.6 % ID/g |  | 1.2 |  |  | 0.2 | 2.8
iTF (2.0): Human transferrin covalently bound to ICG-Sulfo-OSu near-infrared dye; number of dye(s) labeled 2.0 |  |  |  | the fluorescent signal from the tumor site was observed | 3.3 |  |  | 0.7 | 2.8
iTF (4.8): Human transferrin covalently bound to ICG-Sulfo-OSu near-infrared dye; number of dye(s) labeled 4.8 |  |  |  | the fluorescent signal from the tumor site was observed | 4.1 |  |  | 3.3 | 2.1
iTF (7.0): Human transferrin covalently bound to ICG-Sulfo-OSu near-infrared dye; number of dye(s) labeled 7.0 |  |  |  | the fluorescent signal from the tumor site was observed | 3.4 |  |  |  | 1.8
iTF (8.3): Human transferrin covalently bound to ICG-Sulfo-OSu near-infrared dye; number of dye(s) labeled 8.3 |  |  |  | the fluorescent signal from the tumor site was observed | 3.3 |  |  | 2.9 | 0.7
iTF (8.4): Human transferrin covalently bound to ICG-Sulfo-OSu near-infrared dye; number of dye(s) labeled 8.4 |  |  | 0.8 % ID/g | the fluorescent signal from the tumor site was observed | 2.3 |  |  | 1.9 | 0.4
